Data published in the supplement of paper PMC10331698.
± gives the standard deviation of the averaged measurements.

Columns and labels:
Experiment in all cases: level (log10 ratio to DMSO vehicle control); higher = higher biomarker level / cell amount than vehicle control
Conditions in all cases: in DMSO
[1] = compound: FC(F)(F)C(F)(C(F)(F)F)C(F)(F)C(F)(F)CC1CO1 [3-(Perfluoro-3-methylbutyl)-1,2-propenoxide]
Description: (§1)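 BioMAP Diversity Plus panel of 12 human primary cell co-culture systems (3C, 4H, LPS, SAg, BT, BF4T, BE3C, CASM3C, HDF3CGF, KF3CT, MyoF, Mphg). Compounds were added 1 h before stimulation and left for 24 h (MyoF 48 h; BT 72 h for soluble read-outs or 6 d for IgG). Biomarkers were read by ELISA, cytotoxicity by SRB, PBMC viability and proliferation by Alamar Blue. Each well value was divided by the mean of 8 DMSO control wells on the same plate and log10 transformed; duplicate blinded samples were tested at 4 concentrations.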

Pentafluoropropionamide = compound: NC(=O)C(F)(F)C(F)(F)F [Pentafluoropropionamide]
Description: as §1

Perfluoropentanoic acid = compound: O=C(O)C(F)(F)C(F)(F)C(F)(F)C(F)(F)F [Perfluoropentanoic acid]
Description: as §1

[2] = compound: O=C(O)C(F)(F)C(F)(F)C(F)(F)OC(F)(C(F)(F)F)C(F)(F)F [Perfluoro-4-isopropoxybutanoic acid]
Description: as §1

[3] = compound: O=C(O)C(F)(F)C(F)(F)C(F)F [4H-Perfluorobutanoic acid]
Description: as §1

[4] = compound: O=C(O)C(F)(F)C(F)(F)OC(F)(F)F [Perfluoro-3-methoxypropanoic acid]
Description: as §1

[5] = compound: O=S(=O)(O)C(F)(F)C(F)(F)C(F)(F)C(F)(F)C(F)(F)C(F)(F)F [Perfluorohexanesulfonic acid]
Description: as §1

Test System | level (log10) ([1]; 6700 nM) | level (log10) ([1]; 20000 nM) | level (log10) (Pentafluoropropionamide; 6700 nM) | level (log10) (Pentafluoropropionamide; 20000 nM) | level (log10) (Pentafluoropropionamide; 60000 nM) | level (log10) (Perfluoropentanoic acid; 6700 nM) | level (log10) (Perfluoropentanoic acid; 20000 nM) | level (log10) (Perfluoropentanoic acid; 60000 nM) | level (log10) ([2]; 6700 nM) | level (log10) ([2]; 20000 nM) | level (log10) ([2]; 60000 nM) | level (log10) ([3]; 6700 nM) | level (log10) ([3]; 20000 nM) | level (log10) ([3]; 60000 nM) | level (log10) ([4]; 6700 nM) | level (log10) ([4]; 20000 nM) | level (log10) ([4]; 60000 nM) | level (log10) ([5]; 6700 nM) | level (log10) ([5]; 20000 nM) | level (log10) ([5]; 60000 nM)
LPS:CD142/Tissue Factor | -0.017 ± 0.088 | 0.031 ± 0.096 | 0.0095 ± 0.015 | -0.022 ± 0.034 | -0.0425 ± 0.046 | 0.006 ± 0.0099 | -0.007 ± 0.051 | 0.031 ± 0.099 | 0.019 ± 0.033 | 0.0165 ± 0.011 | -0.016 ± 0.1 | -0.0205 ± 0.032 | 0.015 ± 0.033 | 0.0185 ± 0.0092 | 0.0095 ± 0.013 | 0.032 ± 0.021 | 0.0125 ± 0.073 | 0.0055 ± 0.023 | 0.001 ± 0.0028 | 0 ± 0.028
BF4T:IL-1alpha | -0.016 ± 0.024 | 0.0185 ± 0.013 | -0.0165 ± 0.0021 | -0.016 ± 0.021 | 0.0065 ± 0.021 | -0.016 ± 0.0085 | -0.005 ± 0.0071 | 0.0155 ± 0.046 | -0.008 ± 0.018 | -0.0245 ± 0.015 | -0.012 ± 0.023 | -0.02 ± 0.0014 | -0.019 ± 0.014 | 0.0085 ± 0.012 | -0.0055 ± 0.03 | -0.021 ± 0.0042 | 0.004 ± 0.045 | -0.0055 ± 0.005 | -0.025 ± 0.0042 | 0.0095 ± 0.00071
BE3C:IL-1alpha | 0.002 ± 0.025 | 0.023 ± 0.057 | 0.0095 ± 0.022 | 0.003 ± 0.014 | 0.0295 ± 0.0035 | 0.005 ± 0.02 | 0 ± 0.0028 | 0.0155 ± 0.029 | 0.0065 ± 0.026 | 0.016 ± 0.02 | 0.0325 ± 0.00071 | -0.0325 ± 0.0064 | -0.018 ± 0.025 | -0.0045 ± 0.079 | 0.0105 ± 0.015 | 0.0235 ± 0.005 | 0.0355 ± 0.026 | 0.0145 ± 0.042 | 0.02 ± 0.018 | 0.0545 ± 0.0021
BF4T:MMP-3 | 0.0005 ± 0.018 | -0.011 ± 0.0028 | -0.024 ± 0.011 | -0.007 | -0.003 ± 0.033 | -0.015 ± 0.011 | -0.0145 ± 0.0092 | -0.0045 ± 0.04 | -0.0095 ± 0.013 | -0.0015 ± 0.029 | 0.042 ± 0.1 | -0.0025 ± 0.012 | -0.014 ± 0.02 | -0.007 ± 0.023 | -0.001 ± 0.024 | 0.0105 ± 0.0035 | 0.043 ± 0.016 | 0.021 ± 0.042 | 0.0195 ± 0.035 | 0.0605 ± 0.053
LPS:M-CSF | -0.0005 ± 0.019 | 0.021 ± 0.038 | -0.0285 ± 0.039 | -0.0055 ± 0.0064 | 0.023 ± 0.0042 | -0.031 ± 0.024 | -0.061 ± 0.11 | -0.0385 ± 0.11 | 0.001 ± 0.0057 | -0.004 ± 0.023 | 0.016 ± 0.0028 | -0.001 ± 0.042 | -0.007 ± 0.014 | -0.003 ± 0.035 | 0.001 ± 0.0085 | -0.0165 ± 0.00071 | 0.0235 ± 0.015 | -0.0065 ± 0.025 | -0.0045 ± 0.025 | 0.036 ± 0.02
4H:SRB | 0 ± 0.025 | -0.019 ± 0.0071 | -0.0055 ± 0.021 | -0.0095 ± 0.0078 | -0.0135 ± 0.016 | -0.0125 ± 0.00071 | -0.0065 ± 0.016 | -0.0025 ± 0.021 | -0.0085 ± 0.021 | -0.008 ± 0.023 | -0.0275 ± 0.019 | -0.0085 ± 0.0092 | -0.003 ± 0.0071 | 0.0055 ± 0.0035 | -0.013 ± 0.0071 | -0.004 ± 0.0071 | 0.0015 ± 0.033 | -0.0245 ± 0.015 | -0.025 ± 0.017 | -0.045 ± 0.023
BF4T:CD54/ICAM-1 | 0.0005 ± 0.018 | -0.011 ± 0.021 | -0.021 ± 0.018 | -0.007 ± 0.014 | -0.019 ± 0.017 | -0.0155 ± 0.0021 | -0.0135 ± 0.005 | 0.0015 ± 0.043 | -0.0095 ± 0.021 | -0.007 ± 0.0057 | -0.0115 ± 0.013 | 0.002 ± 0.0085 | -0.0025 ± 0.032 | 0.0075 ± 0.032 | 0.0165 ± 0.0064 | -0.0085 ± 0.011 | -0.0015 ± 0.0035 | 0.0045 ± 0.00071 | -0.005 ± 0.011 | -0.022 ± 0.0099
BF4T:SRB | 0.0015 ± 0.0035 | -0.0035 ± 0.00071 | -0.0035 ± 0.00071 | -0.007 ± 0.0071 | -0.004 ± 0.0042 | -0.011 ± 0.0085 | -0.008 ± 0.0071 | 0.001 ± 0.0099 | -0.007 ± 0.0057 | -0.015 | -0.005 ± 0.0099 | 0.0005 ± 0.0021 | -0.008 ± 0.0057 | -0.006 ± 0.0042 | -0.0145 ± 0.0035 | -0.0085 ± 0.0021 | 0.0025 ± 0.022 | -0.01 ± 0.0085 | -0.0115 ± 0.0078 | -0.0005 ± 0.0021
LPS:CD40 | -0.0195 ± 0.015 | -0.007 ± 0.034 | -0.0315 ± 0.047 | -0.04 ± 0.013 | -0.025 ± 0.02 | 0.0115 ± 0.011 | 0.0075 ± 0.022 | -0.0265 ± 0.013 | 0.012 ± 0.041 | -0.011 ± 0.018 | -0.0405 ± 0.023 | -0.0365 ± 0.022 | -0.0355 ± 0.021 | 0.015 ± 0.031 | 0.0045 ± 0.013 | 0.0095 ± 0.015 | 0.0135 ± 0.039 | 0.004 ± 0.018 | 0.011 ± 0.023 | -0.0045 ± 0.054
